Test results: patent publication US7511055B2, “Naphthyridin derivatives” (Hoffmann-La Roche Inc., priority 2005, dated 2009)

Target: T1, human mGlu 5a receptor (Homo sapiens, UniProt P41594)
T1 construct: expressed in transfected cells; host or cells: EBNA cells (transient transfection); cell membrane homogenates
Experiment: [3H]MPEP competition binding on membranes of EBNA cells transfected with human mGlu 5a receptor
Details: competition with [3H]MPEP (2 nM), 1 h at 4° C., Ki=IC50/[1+L/Kd]
Protocol: The pharmacological activity of the compounds was tested using the following method: For binding experiments, cDNA encoding human mGlu 5a receptor was transiently transfected into EBNA cells using a procedure described by Schlaeger and Christensen [Cytotechnology 15:1-13 (1998)]. Cell membrane homogenates were stored at −80° C. until the day of assay where upon they were thawed and resuspended and polytronised in 15 mM Tris-HCl, 120 mM NaCl, 100 mM KCl, 25 mM CaCl2, 25 mM MgCl2 binding buffer at pH 7.4 to a final assay concentration of 20 μg protein/well.
Saturation isotherms were determined by addition of twelve [^3H]MPEP concentrations (0.04-100 nM) to these membranes (in a total volume of 200 μl) for 1 h at 4° C. Competition experiments were performed with a fixed concentration of [^3H]MPEP (2 nM) and IC50 values of test compounds evaluated using 11 concentrations (0.3-10,000 nM). Incubations were performed for 1 h at 4° C.
At the end of the incubation, membranes were filtered onto unifilter (96-well white microplate with bonded GF/C filter preincubated 1 h in 0.1% PEI in wash buffer, Packard BioScience, Meriden, Conn.) with a Filtermate 96 harvester (Packard BioScience) and washed 3 times with cold 50 mM Tris-HCl, pH 7.4 buffer. Nonspecific binding was measured in the presence of 10 μM MPEP. The radioactivity on the filter was counted (3 min) on a Packard Top-count microplate scintillation counter with quenching correction after addition of 45 μl of microscint 40 (Canberra Packard S.A., Zürich, Switzerland) and shaking for 20 min.
The inhibition (antagonists) curves were fitted with a four parameter logistic equation giving IC50, and Hill coefficient using iterative non linear curve fitting software (Xcel fit).
For binding experiments the Ki values of the compounds tested are given. The Ki value is defined by the following formula: Ki=IC50/[1+L/Kd] in which the IC50 values are those concentrations of the compounds tested which cause 50% inhibition of the competing radioligand ([^3H]MPEP). L is the concentration of radioligand used in the binding experiment and the Kd value of the radioligand is empirically determined for each batch of membranes prepared.

T1 sequence (P41594 21-1180 isoform P41594-2 limits assumed): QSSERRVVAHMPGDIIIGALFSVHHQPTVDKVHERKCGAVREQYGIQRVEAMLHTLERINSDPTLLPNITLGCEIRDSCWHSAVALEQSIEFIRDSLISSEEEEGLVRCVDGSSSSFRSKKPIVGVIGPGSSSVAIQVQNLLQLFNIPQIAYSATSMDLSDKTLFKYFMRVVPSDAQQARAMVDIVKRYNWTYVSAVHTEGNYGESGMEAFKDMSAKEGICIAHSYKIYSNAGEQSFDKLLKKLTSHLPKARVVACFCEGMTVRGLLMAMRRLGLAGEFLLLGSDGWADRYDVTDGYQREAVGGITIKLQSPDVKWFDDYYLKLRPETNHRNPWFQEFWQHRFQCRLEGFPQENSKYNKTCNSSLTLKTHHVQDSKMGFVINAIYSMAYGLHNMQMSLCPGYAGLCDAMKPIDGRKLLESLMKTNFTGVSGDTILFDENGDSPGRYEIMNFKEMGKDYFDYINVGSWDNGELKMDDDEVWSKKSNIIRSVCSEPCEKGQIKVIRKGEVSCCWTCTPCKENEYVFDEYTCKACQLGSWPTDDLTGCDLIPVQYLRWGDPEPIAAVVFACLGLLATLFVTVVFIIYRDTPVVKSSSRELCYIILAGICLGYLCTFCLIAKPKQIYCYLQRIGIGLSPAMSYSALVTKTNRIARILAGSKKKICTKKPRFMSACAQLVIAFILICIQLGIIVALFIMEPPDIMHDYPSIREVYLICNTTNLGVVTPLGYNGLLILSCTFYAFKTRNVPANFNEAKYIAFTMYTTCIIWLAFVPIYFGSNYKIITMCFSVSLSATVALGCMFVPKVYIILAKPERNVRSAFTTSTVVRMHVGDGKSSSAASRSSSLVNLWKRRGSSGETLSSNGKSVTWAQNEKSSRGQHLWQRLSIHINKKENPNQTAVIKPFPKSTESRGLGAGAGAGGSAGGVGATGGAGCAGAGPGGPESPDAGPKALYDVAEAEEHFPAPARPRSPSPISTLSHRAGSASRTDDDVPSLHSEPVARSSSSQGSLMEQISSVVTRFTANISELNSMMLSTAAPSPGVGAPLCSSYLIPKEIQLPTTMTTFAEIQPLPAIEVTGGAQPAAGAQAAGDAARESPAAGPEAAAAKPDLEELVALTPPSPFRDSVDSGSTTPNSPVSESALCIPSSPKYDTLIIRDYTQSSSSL

Row | Ki | Structure (SMILES)
1 | 38 nM | Cc1ccc2c(-c3cccc(F)c3)cnc(Nc3ccn(C)n3)c2n1 [Example 68, [5-(3-Fluoro-phenyl)-2-methyl-[1,7]naphthyridin-8-yl]-(1-methyl-1H-pyrazol-3-yl)-amine]
2 | 86 nM | Cc1ccc(Nc2ncc(-c3cccnc3)c3cccnc23)nc1 [Example 9, (5-Methyl-pyridin-2-yl)-(5-pyridin-3-yl-[1,7]naphthyridin-8-yl)-amine]
3 | 89 nM | Clc1cccc(Nc2nccc3cccnc23)c1 [Example 2, (3-Chloro-phenyl)-[1,7]naphthyridin-8-yl-amine]
4 | 66 nM | Fc1ccc(Nc2ncc(-c3cncc(F)c3)c3cccnc23)nc1 [Example 15, (5-Fluoro-pyridin-2-yl)-[5-(5-fluoro-pyridin-3-yl)-[1,7]naphthyridin-8-yl]-amine]
5 | 41 nM | COc1cncc(-c2cnc(Nc3ccc(F)cn3)c3ncccc23)c1 [Example 17, (5-Fluoro-pyridin-2-yl)-[5-(5-methoxy-pyridin-3-yl)-[1,7]naphthyridin-8-yl]-amine]
6 | 38 nM | Clc1cc(Nc2ncc(-c3cccnc3)c3cccnc23)ccn1 [Example 8, (2-Chloro-pyridin-4-yl)-(5-pyridin-3-yl-[1,7]naphthyridin-8-yl)-amine]
7 | 18 nM | Clc1cccc(Nc2ncc(-c3cccnc3)c3cccnc23)c1 [Example 7, (3-Chloro-phenyl)-(5-pyridin-3-yl-[1,7]naphthyridin-8-yl)-amine]
8 | 56 nM | COc1cccc(-c2cnc(Nc3nc(C)cs3)c3nc(C)ccc23)c1 [Example 42, [5-(3-Methoxy-phenyl)-2-methyl-[1,7]naphthyridin-8-yl]-(4-methyl-thiazol-2-yl)-amine]
9 | 8 nM | Clc1cccc(Nc2ncc(-c3ccc(Cl)nc3)c3cccnc23)c1 [Example 11, (3-Chloro-phenyl)-[5-(6-chloro-pyridin-3-yl)-[1,7]naphthyridin-8-yl]-amine]
10 | 44 nM | Fc1ccc(Nc2ncc(-c3cncnc3)c3cccnc23)nc1 [Example 19, (5-Fluoro-pyridin-2-yl)-(5-pyrimidin-5-yl-[1,7]naphthyridin-8-yl)-amine]
11 | 51 nM | Cc1csc(Nc2ncc(-c3cccc(C(F)(F)F)c3)c3ccc(C)nc23)n1 [Example 43, (4-Methyl-thiazol-2-yl)-[2-methyl-5-(3-trifluoromethyl-phenyl)-[1,7]naphthyridin-8-yl]-amine]
12 | 33 nM | Cc1cccc(Nc2ncc(-c3cccnc3)c3cccnc23)n1 [Example 6, (6-Methyl-pyridin-2-yl)-(5-pyridin-3-yl-[1,7]naphthyridin-8-yl)-amine]
13 | 19 nM | Fc1ccc(Nc2ncc(-c3cccnc3)c3cccnc23)nc1 [Example 10, (5-Fluoro-pyridin-2-yl)-(5-pyridin-3-yl-[1,7]naphthyridin-8-yl)-amine]
14 | 25 nM | Cc1cccc(Nc2nccc3cccnc23)n1 [Example 1, (6-Methyl-pyridin-2-yl)-[1,7]naphthyridin-8-yl-amine]
15 | 62 nM | Cc1csc(Nc2nccc3cccnc23)n1 [Example 5, (4-Methyl-thiazol-2-yl)-[1,7]naphthyridin-8-yl-amine]
16 | 66 nM | Fc1cncc(-c2cnc(Nc3ccnc(Cl)c3)c3ncccc23)c1 [Example 14, (2-Chloro-pyridin-4-yl)-[5-(5-fluoro-pyridin-3-yl)-[1,7]naphthyridin-8-yl]-amine]
17 | 51 nM | Cc1csc(Nc2ncc(-c3cncc(C(F)(F)F)n3)c3ccc(C)nc23)n1 [Example 81, (4-Methyl-thiazol-2-yl)-[2-methyl-5-(6-trifluoromethyl-pyrazin-2-yl)-[1,7]naphthyridin-8-yl]-amine]
18 | 41 nM | Clc1cc(Nc2ncc(-c3cncnc3)c3cccnc23)ccn1 [Example 18, (2-Chloro-pyridin-4-yl)-(5-pyrimidin-5-yl-[1,7]naphthyridin-8-yl)-amine]
19 | 56 nM | COc1ccc(-c2cnc(Nc3ccnc(Cl)c3)c3ncccc23)cn1 [Example 12, (2-Chloro-pyridin-4-yl)-[5-(6-methoxy-pyridin-3-yl)-[1,7]naphthyridin-8-yl]-amine]
